Laboratory results taken from paper PMC8102459, “3,3′-Thiodipropionic acid (TDP), a possible precursor for the synthesis of polythioesters: identification of TDP transport proteins in Variovorax paradoxus TBEA6” (Applied Microbiology and Biotechnology, 2021).

Legend:
Assay in all cases: thermal shift assay, SYPRO Orange, real-time PCR
Format in all cases: binding
[1] = molecular target: T1, TctC protein with locus tag VPARA-01760 (Variovorax paradoxus, UniProt A0A0H2MDR2); settings: 1 μM protein, sodium phosphate pH 7.4, 0.1 to 3000 μM ligand
T1 construct: gene VPARA_01760; His-tagged (pET19b or pET23a)
T1 sequence (A0A0H2MDR2 1-326 limits assumed): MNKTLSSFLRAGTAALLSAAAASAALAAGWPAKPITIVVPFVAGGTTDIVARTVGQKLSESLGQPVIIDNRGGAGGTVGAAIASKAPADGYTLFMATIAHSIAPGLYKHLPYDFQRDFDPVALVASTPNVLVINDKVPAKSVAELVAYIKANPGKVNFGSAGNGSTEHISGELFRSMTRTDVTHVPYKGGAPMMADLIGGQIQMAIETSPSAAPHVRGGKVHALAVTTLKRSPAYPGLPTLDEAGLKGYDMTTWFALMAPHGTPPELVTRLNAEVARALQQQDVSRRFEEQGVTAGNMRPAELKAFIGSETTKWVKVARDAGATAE

[2] = molecular target: T2, TctC-44430 (TctC, locus tag VPARA-44430) (Variovorax paradoxus, UniProt A0A0H2LXQ8); settings: 1 μM protein, sodium phosphate pH 7.4; value is the melting temperature, not the shift; control Tm not given
T2 construct: gene VPARA_44430; His-tagged (pET19b N-terminal; pET23a C-terminal also made), E. coli BL21
T2 sequence (A0A0H2LXQ8 1-329 limits assumed): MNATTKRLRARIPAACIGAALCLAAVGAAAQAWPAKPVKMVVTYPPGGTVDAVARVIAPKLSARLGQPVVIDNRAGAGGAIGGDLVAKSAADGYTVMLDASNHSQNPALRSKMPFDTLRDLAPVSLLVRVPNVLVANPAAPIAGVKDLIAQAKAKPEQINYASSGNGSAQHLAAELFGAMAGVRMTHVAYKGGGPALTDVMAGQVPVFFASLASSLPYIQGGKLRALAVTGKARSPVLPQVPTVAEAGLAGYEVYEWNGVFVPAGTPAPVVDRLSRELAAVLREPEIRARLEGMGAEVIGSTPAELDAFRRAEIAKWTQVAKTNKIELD

[3] = molecular target: T2, TctC-44430 (TctC, locus tag VPARA-44430); settings: 1 μM protein, sodium phosphate pH 7.4; value is the melting temperature, not the shift; control Tm not given; remark: listed apart in the source

Row | Tm at 3000 μM TDP [2] [°C] | Tm at 3000 μM gluconate [3] [°C] | Structure (SMILES) | Tm shift [1]
1 | 56 |  | O=C(O)CCSCCC(=O)O [TDP, 3,3′-Thiodipropionic acid] | VPARA-01760 also showed temperature shifts with TDP or gluconate
2 |  | 83 | O=C(O)[C@H](O)[C@@H](O)[C@H](O)[C@H](O)CO [gluconate] | VPARA-01760 also showed temperature shifts with TDP or gluconate
